Measurements reported in the SangsterLogP compilation.
Residues, ends and D or L forms follow the SMILES beside them.

Experiment: method code SF, from Hansch, C. & Leo, A. (1987). Log P database [Dataset]. Pomona College Medicinal Chemistry Project.

CCOP(=S)(OCC)SCn1nnc2ccccc2c1=O
logP: 3.4

ClCCOCCCl
logP: 1.29

CC(=O)OCC1=C(C(=O)O)N2C(=O)[C@@H](NC(=O)CBr)[C@H]2SC1
logD (pH 3.0): -0.7

COc1ccc(Cc2cnc(N)nc2N)c(OC)c1OC
logD (pH 13.0): 1.52

CCOC(=O)C(=Cc1cccc(F)c1)C(=O)OCC
logP: 3.19

NC(=O)[C@H](Cc1ccccc1)NC(=O)[C@@H](N)Cc1ccccc1 (H-Phe-Phe-NH2)
logP: 1.13

CC(=O)Nc1ccccc1C(F)(F)F
logP: 1.11

CC(=O)Oc1ccccc1I
logP: 2.55

c1ccc2c(c1)OCCO2
logP: 2.01

CC(=O)OCC1=C(C(=O)O)N2C(=O)C(NC(=O)CSc3cc(Cl)ccc3Cl)C2SC1 (centres undefined)
logD (pH 3.0): 1.66

CC1(C)OC(=O)c2ccccc21
logP: 1.73

COP(=O)(NC(C)(C)C)Oc1cc(Cl)c(Cl)cc1Cl (centres undefined)
logP: 3.83

CC(=O)c1ccc2ncccc2c1
logP: 1.58

CCOP(=O)(OCC)Oc1ccc(SC)cc1Cl
logP: 3.05

Sc1ncnc2nc[nH]c12
logD (pH 7.4): 0.01

Nc1ccc(C2CCCCC2)cc1
logP: 3.65

FC(F)Cl
logP: 1.08

CN(C)/N=N/c1cn([C@@H]2O[C@H](CO)[C@@H](O)[C@H]2O)c(=O)[nH]c1=O
logP: -1.82

N#CCC(=O)Nc1ccc(Cl)c(Cl)c1
logP: 2.72

CC(=O)C(=Cc1ccc(C)cc1)C(C)=O
logP: 2.14

COc1cc(C=O)ccc1OCCOC(=O)c1ccc(Cl)cc1
logP: 3.71

Cc1n[nH]cc1[N+](=O)[O-]
logP: 0.19

O=CC=Cc1ccco1
logP: 1.15

CC1=Nc2ccc(C(F)(F)F)cc2S(=O)(=O)N1
logP: 1.51

CCC(C)NC(=O)C=C(Cl)c1ccc(Cl)cc1 (centres undefined)
logP: 3.61

OC(O)C(Cl)(Cl)Cl
logP: 0.99

CC(C)NCc1cccnc1
logD (pH 11.0): 0.82

O=C(CNC(=O)c1ccccc1)Oc1cccc([N+](=O)[O-])c1
logP: 2.46

O=Cc1ccsc1
logP: 1.01

O=S1(=O)NC(C2CCC2)=Nc2ccc(Cl)cc21
logP: 2.24

CC(C)(O)C(Cl)(Cl)Cl
logP: 2.03

FC(Cl)Cl
logP: 1.55

CS(=O)c1ccccc1 (centres undefined)
logP: 0.55

COc1ccc(-n2c(C)c(N(C)C)c(=O)n(C)c2=O)cc1
logD (pH 7.4): 1.96

COc1ccc(OC(=O)CNC(=O)c2ccccc2)cc1
logP: 2.28

NNc1ccc(Br)cc1
logD (pH 13.0): 1.39

CNP(=O)(OC)Oc1ccc(C(C)(C)C)cc1 (centres undefined)
logP: 2.71

NC(=O)c1cccc(OC(=O)CNC(=O)c2ccccc2)c1
logP: 1.2

CCOC(=O)C(=Cc1cccc(OC)c1OC)C(C)=O
logP: 2.21

O=C(Nc1ccc(Cl)c(Cl)c1)C(F)F
logP: 3.18

NCCc1c[nH]c2ccc(O)cc12
logP: 0.21

OC(C1CO1)C(O)C1CO1 (centres undefined)
logP: -1.29

CCC(=O)CCCN(C)c1ccc(S(=O)(=O)N(C)C)cc1
logP: 0.71

CCOP(=O)(OCC)Oc1ccc(SC)cc1C
logP: 3.21

OCCC(F)(F)F
logP: 0.39

Nc1cn[nH]c1
logD (pH 13.0): -1.09

O=C1C=CC(=O)c2c(O)cccc21
logP: 1.92

CCOC(=O)C(=Cc1ccc(Cl)cc1)C(=O)OCC
logP: 3.96

CN(C=O)c1ccccc1
logP: 1.09

CCCCOC(=O)c1cccnc1
logD (pH 7.0): 2.27

O=CNc1cccc([N+](=O)[O-])c1
logD (pH 7.0): 1.4

CCOCCOC(=O)C(C#N)=C(CC)NCc1ccc([N+](=O)[O-])cc1
logP: 2.64

COC(=O)c1ccccc1C(=O)O
logD (pH 1.0): 1.13

CN(C)CCCc1ccco1
logP: 2.08

BrCCBr
logP: 1.96

CCOC(=O)OCC
logP: 1.21

CC1(C)N=C(N)N=C(N)N1c1ccc(I)cc1
logD (pH 13.0): 1.39

CCCc1c(OCCCCc2nnn[nH]2)ccc(C(C)=O)c1O
logD (pH 2.2): 3.82

O=NN(CCCl)C(=O)NC(C(=O)O)C1CCCCC1 (centres undefined)
logP: -0.63

COc1cc(O)cc(OC)c1
logP: 1.64

CCc1ccc2c(c1)N=C(C)NS2(=O)=O
logP: 1.25

CCCC(=O)Nc1ccccc1
logP: 2.05

COc1ccc2[nH]c(C(O)C(O)c3nc4cc(OC)ccc4[nH]3)nc2c1 (centres undefined)
logP: 1.05

CC(=O)C(C)=O
logP: -1.34

CCCCC(=O)Nc1ccccc1
logP: 2.61

CC1=Nc2ccc(I)cc2S(=O)(=O)N1
logP: 1.61

CN(C(=O)CCCl)c1ccc(S(=O)(=O)N(C)C)cc1
logP: 0.98

CCC(C)NC(=O)C=Cc1ccc(Cl)cc1 (centres undefined)
logP: 3.37

CC(=O)OC1OC(C)C(OC(C)=O)C(OC(C)=O)C1NC(=O)N(CCCl)N=O (centres undefined)
logP: 1.32

COCC1=Nc2cc(Cl)ccc2S(=O)(=O)N1
logP: 1.12

CCCCC1OC(=O)c2cc(O)ccc21 (centres undefined)
logP: 3.12

CCSCC1=Nc2cc(Cl)ccc2S(=O)(=O)N1
logP: 2.26

CC(C)c1ccc(O)c(=O)cc1
logD (pH 5.0): 1.89

COc1ccccc1C(=O)N(C)C
logP: 0.71

COc1ccccc1C(=O)c1ccncc1
logP: 1.86

CCCc1ccncc1
logP: 2.1

CC(=NNC(=S)N(C)C)c1cc(C)ccc1O
logP: 2.26

O=S(=O)(c1ccccc1)C(F)(F)F
logP: 2.69

COc1ccc(C(C)=O)c(O)c1
logP: 1.98

CC(=O)Nc1cccc(OCc2cccc(/N=C(\N)N=C(N)N)c2)c1
logD (pH 13.0): 1.82

COc1ccc2[nH]c(CC(O)c3nc4cc(OC)ccc4[nH]3)nc2c1 (centres undefined)
logP: 0.76

CCCCOc1cccc(C=C(C(=O)OCC)C(=O)OCC)c1
logP: 4.03

O=C(Nc1ccccc1)C(F)(F)F
logP: 2.21

CC(=O)c1cccc(C#N)c1
logD (pH 7.0): 1.16

ClC(Cl)(Cl)Sc1ccccc1
logP: 3.78

CCCCC(=O)c1ccc[nH]1
logP: 2.42

O=C(O)c1csc(C=Cc2ccc([N+](=O)[O-])o2)n1
logP: -0.03

CCSc1ccccc1
logP: 3.2

CC(=O)c1ccco1
logP: 0.52

NC(=O)c1ccc(I)cc1
logP: 1.99

CC(=O)Nc1ccccc1NC(C)=O
logP: -0.03

CCCNCCC
logP: 1.73

CSc1ccc(NC(C)=O)cc1
logP: 2.03

CC(Cl)(Cl)Cl
logP: 2.49

O=C(O)CCl
logP: 0.22

CCOS(=O)(=O)c1ccc(C)cc1
logP: 1.81

O=S(=O)(Nc1ccccc1)c1ccccc1
logP: 2.58

CCC(=O)O[C@]1(C(=O)CO)[C@H](C)C[C@H]2[C@@H]3C[C@H](F)C4=CC(=O)C(Cl)=C[C@]4(C)[C@@]3(F)[C@@H](O)C[C@@]21C
logP: 2.99

Cc1cc(C)ncn1
logP: 0.62

COc1cc2c(c(OC)c1OC)-c1ccc(O)c(=O)cc1[C@@H](N)CC2
logP: 0.26

CC1(C)N=C(N)N=C(N)N1c1cccc(C#N)c1
logD (pH 13.0): -0.24

CCOC(=O)c1ccccc1N
logP: 2.57

O=[N+]([O-])c1ccc2[nH]c(CCCc3nc4cc([N+](=O)[O-])ccc4[nH]3)nc2c1
logP: 1.62

Cc1nnc(SCc2ccccc2)s1
logP: 2.35

COc1ccc2c(c1O)-c1cccc3c1C(C2)N(CCO)CC3 (centres undefined)
logD (pH 7.4): 2.43

CCOC(C)OCC
logP: 1.49

NC(=O)c1cccc(N)c1
logP: -0.33

O=CNc1ccccc1
logP: 1.2

FS(F)(F)(F)(F)c1ccccc1
logP: 3.36

CC1(C)O[C@@H]2C[C@H]3[C@@H]4C[C@H](F)C5=CC(=O)C=C[C@]5(C)[C@@]4(F)[C@@H](O)C[C@]3(C)[C@]2(C(=O)CO)O1
logP: 2.48

CCc1n[nH]c(=O)[nH]c1=O
logP: 0.22

CCC1(CC2COc3ccccc3O2)C(=O)NC(=O)NC1=O (centres undefined)
logD (pH 2.0): 1.85

c1cn[nH]c1
logP: 0.13

CC(C)c1cccc(O)c(=O)c1
logD (pH 5.0): 1.82

O=C(O)c1cccs1
logP: 1.57

CC(=O)N[C@@H]1CC(=O)N(c2ccc(Cl)cc2)C1=O
logP: 0.75

CCOC(=O)CC(=O)C=Cc1ccccc1C
logP: 2.66

O=c1[nH]cc(Cl)c(=O)[nH]1
logP: -0.35

Clc1ccc2[nH]c(CCCc3nc4cc(Cl)ccc4[nH]3)nc2c1
logP: 1.88

COc1ccc(NC(C)=O)cc1
logP: 1.1

CCC(C)C(=O)Nc1ccc(Cl)c(Cl)c1 (centres undefined)
logP: 4.11

CC(=O)NO
logP: -1.59

Cc1cccc(OC(=O)CNC(=O)c2ccccc2)c1
logP: 2.72

CC(=O)c1c(O)oc(=O)c(/C(C)=N/c2ccccc2)c1O
logD (pH 1.0): 2.58

N#CCc1ccco1
logP: 0.85

Cc1ccncc1
logP: 1.22

NC(=O)C(Cl)(Cl)Cl
logP: 1.04

N#Cc1ccc(C(N)=O)cc1
logP: 0.48

O=C(CCCN1CCC(n2c(=O)[nH]c3ccccc32)CC1)c1ccc(F)cc1
logD (pH 7.4): 3.91

O=C(O)CONC(=O)c1ccccc1
logP: -0.27

Cc1c(C2(c3cc(C(C)C)c(O)c(Br)c3C)OS(=O)(=O)c3ccccc32)cc(C(C)C)c(O)c1Br
logP: 2.78

NC(=O)c1ccccc1F
logP: 0.64

O=[N+]([O-])c1ccc(C=Cc2nc[nH]n2)o1
logP: 1.1

CCNC(N)=O
logP: -0.74

CCOC(CCC#N)OCC
logP: 0.75

CN(C)Cc1cccnc1
logD (pH 11.0): 0.49

CCCCNC
logP: 1.33

CCOC(=O)C(=Cc1cccc(OC)c1)C(=O)OCC
logP: 3.18

CN(CCO)N=Nc1ccccc1
logD (pH 12.0): 1.71

CCS(=O)(=O)c1ccc(S(N)(=O)=O)c2ccccc12
logP: 1.24

NC(=O)/C=C/c1ccc2c(c1)OCO2
logP: 1.4

CNc1nc2ccccc2o1
logP: 1.82

O=C(NCC(O)c1ccc([N+](=O)[O-])cc1)C(F)(F)F (centres undefined)
logP: 1.46

O=[N+]([O-])c1ccc2oncc2c1
logD (pH 5.0): 1.46

Nc1ccc(I)cc1
logP: 2.34

Cc1c(-c2ccccc2)oc2ccccc2c1=O
logP: 3.92

CC(=O)C(=Cc1ccc(F)cc1)C(C)=O
logP: 1.65

CNC(=O)Oc1cc(Cl)ccc1Cl
logP: 2.44

c1ccc2oncc2c1
logP: 1.63

CCCCOc1cccc(C=C(C(C)=O)C(=O)OCC)c1
logP: 3.12

CC1=NCCN1CCO
logP: 0.04

Nc1nccs1
logP: 0.38

O=[N+]([O-])c1ccc(OCCn2ccnn2)cc1
logP: 1.19

CCOC(=O)C(=Cc1ccc(OC)cc1)C(C)=O
logP: 2.46

COc1ccccc1OC(C)=O
logP: 1.38

CCCCC[N+](=O)[O-]
logP: 2.01

CN(C)/N=N/c1ccccc1
logD (pH 7.4): 2.59

CCOP(=S)(OCC)SCS(=O)(=O)C(C)(C)C
logP: 2.48

CN(C)/N=N/c1cccc(Cl)c1
logP: 3.44
